# Reference: the Kinase Knowledgebase extract (Sharma et al. 2016)
# Target: PIK3CA (human) (UniProt P42336)
# Test: Assessment of PIK3CA Kinase Activity
# Chain of PIK3CA (human) (P42336 whole entry, looked up): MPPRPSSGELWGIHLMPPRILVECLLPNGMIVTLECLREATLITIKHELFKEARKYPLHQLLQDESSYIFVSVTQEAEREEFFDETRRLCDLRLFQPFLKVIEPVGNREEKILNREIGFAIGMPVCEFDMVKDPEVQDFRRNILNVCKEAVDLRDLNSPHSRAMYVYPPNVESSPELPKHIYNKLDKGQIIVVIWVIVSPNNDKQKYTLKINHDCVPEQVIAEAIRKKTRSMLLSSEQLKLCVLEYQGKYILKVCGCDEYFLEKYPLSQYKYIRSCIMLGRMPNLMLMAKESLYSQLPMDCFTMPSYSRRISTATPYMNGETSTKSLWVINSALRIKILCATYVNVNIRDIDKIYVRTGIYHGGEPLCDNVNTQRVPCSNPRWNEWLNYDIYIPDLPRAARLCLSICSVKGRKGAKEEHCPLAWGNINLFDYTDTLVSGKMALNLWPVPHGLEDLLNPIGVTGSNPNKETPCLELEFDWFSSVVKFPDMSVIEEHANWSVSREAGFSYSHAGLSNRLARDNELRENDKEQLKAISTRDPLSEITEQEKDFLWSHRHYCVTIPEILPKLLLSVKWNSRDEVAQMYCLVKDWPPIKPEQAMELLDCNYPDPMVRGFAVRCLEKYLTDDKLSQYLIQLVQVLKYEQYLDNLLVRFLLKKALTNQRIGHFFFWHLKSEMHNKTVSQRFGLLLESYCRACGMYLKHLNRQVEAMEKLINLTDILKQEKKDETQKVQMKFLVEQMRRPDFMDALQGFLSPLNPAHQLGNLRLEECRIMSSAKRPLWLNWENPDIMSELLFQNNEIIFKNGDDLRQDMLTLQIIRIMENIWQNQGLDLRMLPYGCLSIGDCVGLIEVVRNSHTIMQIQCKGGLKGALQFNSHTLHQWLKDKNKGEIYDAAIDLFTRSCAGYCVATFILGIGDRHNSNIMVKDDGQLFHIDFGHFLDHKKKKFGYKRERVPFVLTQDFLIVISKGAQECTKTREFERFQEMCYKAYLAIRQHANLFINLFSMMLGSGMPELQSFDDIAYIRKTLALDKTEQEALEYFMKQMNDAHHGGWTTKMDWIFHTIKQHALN
row,IC50,SMILES
1,50 to 200 nM,CN(C)C(=O)c1ccc(NC(=O)Nc2ccc(-c3nc(N4CCOCC4)c4cc(F)c(-c5cncnc5)cc4n3)c(F)c2)cc1
2,50 to 200 nM,Cc1ccc(-c2ccc3c(N4CCOCC4)nc(-c4ccc(NC(=O)Nc5ccc(C(=O)N6CC[C@H](N(C)C)C6)cc5)cc4)nc3c2)o1
3,< 50 nM,CNC(=O)c1ccc(NC(=O)Nc2ccc(-c3nc(N4CCOCC4)c4ncc(-c5cnn(C)c5)cc4n3)cc2)cc1
4,< 50 nM,CN(C)C(=O)c1ccc(NC(=O)Nc2ccc(-c3nc(N4CCOCC4)c4ncc(-c5cncnc5)cc4n3)cc2)cc1F
5,< 50 nM,CN(C)CCN(C)C(=O)c1ccc(NC(=O)Nc2ccc(-c3nc(N4CCOCC4)c4ccc(-c5ccco5)cc4n3)cc2)cc1
6,< 50 nM,CN1CCN(C(=O)c2ccc(NC(=O)Nc3ccc(-c4nc(N5CCOCC5)c5cc(F)c(-c6cccnc6)cc5n4)cc3F)cc2)CC1
7,< 50 nM,CN(C)C(=O)c1ccc(NC(=O)Nc2ccc(-c3nc(N4CCOCC4)c4ccc(-c5cnn(C)c5)cc4n3)cc2)cc1
8,< 50 nM,CN(C)C(=O)c1ccc(NC(=O)Nc2ccc(-c3nc(N4CCOCC4)c4ccc(-c5cccnc5)cc4n3)c(F)c2)cc1
9,< 50 nM,CN(C)C(=O)c1ccc(NC(=O)Nc2ccc(-c3nc(N4CCOCC4)c4ncc(-c5cccnc5F)cc4n3)cc2F)cc1
10,< 50 nM,Cc1ccc(-c2cnc3c(N4CCOCC4)nc(-c4ccc(NC(=O)Nc5ccc(C(=O)N(C)C)cc5)cc4)nc3c2)o1
11,< 50 nM,CN(C)C(=O)c1ccc(NC(=O)Nc2ccc(-c3nc(N4CCOCC4)c4ccc(-c5ccco5)cc4n3)cc2)c(F)c1
12,< 50 nM,CN(C)C(=O)c1ccc(NC(=O)Nc2ccc(-c3nc(N4CCOCC4)c4ccc(-c5ccc(C#N)o5)cc4n3)c(F)c2)cc1
13,< 50 nM,CN(C)C(=O)c1ccc(NC(=O)Nc2ccc(-c3nc(N4CCOCC4)c4ccc(-c5ccccn5)cc4n3)cc2)cc1
14,< 50 nM,CC1CN(c2nc(-c3ccc(NC(=O)Nc4ccc(C(=O)N(C)C)cc4)cc3)nc3cc(-c4cnn(C)c4)cnc23)CCO1 (configuration not stated)
15,50 to 200 nM,Cc1noc(C)c1-c1ccc2c(N3CCOCC3)nc(-c3ccc(NC(=O)Nc4ccc(C(=O)N5CC[C@H](N(C)C)C5)cc4)cc3)nc2c1
16,50 to 200 nM,CN(C)C(=O)c1ccc(NC(=O)Nc2ccc(-c3nc(N4CCOCC4)c4ccc(-c5ccco5)cc4n3)c(F)c2)cc1

row,IC50,SMILES
1,50 to 200 nM,CN(C)C(=O)c1ccc(NC(=O)Nc2ccc(-c3nc(N4CCOCC4)c4ccc(-c5ccccn5)cc4n3)cc2F)cc1
2,50 to 200 nM,CN(C)[C@@H]1CCN(C(=O)c2ccc(NC(=O)Nc3ccc(-c4nc(N5CCOCC5)c5ccc(C(C)(C)O)cc5n4)cc3)cc2)C1
3,< 50 nM,Cc1ncccc1-c1ccc2c(N3CCOCC3)nc(-c3ccc(NC(=O)Nc4ccc(C(=O)N(C)C)cc4F)cc3)nc2c1
4,50 to 200 nM,CN(C)C(=O)c1ccc(NC(=O)Nc2ccc(-c3nc(N4CCOCC4)c4ccc(-c5cccnc5F)cc4n3)cc2)cn1
5,50 to 200 nM,CN(C)C(=O)c1ccc(NC(=O)Nc2ccc(-c3nc(N4CCOCC4)c4ccc(-c5ccnnc5)cc4n3)cc2F)cc1
6,< 50 nM,CN(C)C(=O)c1ccc(NC(=O)Nc2ccc(-c3nc(N4CCOCC4)c4ccc(-c5ccc(C(=O)O)o5)cc4n3)cc2)cc1
7,50 to 200 nM,CN(C)C(=O)c1ccc(NC(=O)Nc2ccc(-c3nc(N4CCOCC4)c4ccc(C(C)(C)O)cc4n3)cc2F)cc1
8,< 50 nM,Cc1ccc(-c2ccc3c(N4CCOCC4)nc(-c4ccc(NC(=O)Nc5ccc(C(=O)N(C)C)cc5)cc4)nc3c2)cn1
9,< 50 nM,COc1ncc(-c2ccc3c(N4CCOCC4)nc(-c4ccc(NC(=O)Nc5ccc(C(=O)N(C)C)cc5)cc4F)nc3c2)cn1
10,< 50 nM,CN1CCN(C(=O)c2ccc(NC(=O)Nc3ccc(-c4nc(N5CCOCC5)c5ccc(-c6ccco6)cc5n4)cc3)cc2)CC1
11,< 50 nM,CN(C)C(=O)c1ccc(NC(=O)Nc2ccc(-c3nc(N4CCOCC4)c4ccc(-c5cccc(N(C)C)c5)cc4n3)cc2)cc1
12,< 50 nM,CN(C)C1CCN(C(=O)c2ccc(NC(=O)Nc3ccc(-c4nc(N5CCOCC5)c5ccc(-c6cccnc6F)cc5n4)cn3)cc2)CC1
13,50 to 200 nM,CN(C)Cc1ccc(-c2ccc3c(N4CCOCC4)nc(-c4ccc(NC(=O)Nc5ccc(C(=O)N(C)C)cc5)cc4)nc3c2)o1
14,< 50 nM,CN(C)C(=O)c1ccc(NC(=O)Nc2ccc(-c3nc(N4CCOCC4)c4ccc(-c5cnn(C)c5)cc4n3)cn2)c(F)c1
15,50 to 200 nM,COc1ccc(-c2ccc3c(N4CCOCC4)nc(-c4ccc(NC(=O)Nc5ccc(C(=O)N(C)C)cc5)cc4F)nc3c2)cn1

# Continued, molecule first:
row,SMILES,IC50
1,CN(C)C(=O)c1ccc(NC(=O)Nc2ccc(-c3nc(N4CCOCC4)c4cc(F)c(-c5cccnc5)cc4n3)cn2)cc1,< 50 nM
2,CN(C)C(=O)c1ccc(NC(=O)Nc2ccc(-c3nc(N4CCOCC4)c4ccc(-c5ccccn5)cc4n3)cc2)c(F)c1,< 50 nM
3,CN(C)C(=O)c1ccc(NC(=O)Nc2ccc(-c3nc(N4CCOCC4)c4cc(F)c(-c5cccnc5F)cc4n3)cc2)cc1,< 50 nM
4,Cc1ccc(-c2ccc3c(N4CCOCC4)nc(-c4ccc(NC(=O)Nc5ccc(C(=O)N(C)C)c(F)c5)cc4)nc3c2)o1,50 to 200 nM
5,CN1CCN(C(=O)c2ccc(-c3ccc4c(N5CCOCC5)nc(-c5ccc(NC(=O)Nc6ccc(C(=O)N(C)C)cc6)cc5)nc4c3)o2)CC1,< 50 nM
6,CN(C)C(=O)c1ccc(NC(=O)Nc2ccc(-c3nc(N4CCOCC4)c4ncc(-c5cnn(C)c5)cc4n3)cc2)c(F)c1,< 50 nM
7,Cc1ccncc1-c1ccc2c(N3CCOCC3)nc(-c3ccc(NC(=O)Nc4ccc(C(=O)N(C)C)cc4)cc3)nc2c1,< 50 nM
8,CN(C)[C@H]1CCN(C(=O)c2ccc(NC(=O)Nc3ccc(-c4nc(N5CCOCC5)c5ncc(-c6cnn(C)c6)cc5n4)cc3)cc2)C1,< 50 nM
9,CN(C)C(=O)c1ccc(NC(=O)Nc2ccc(-c3nc(N4CCOCC4)c4ccc(-c5ccc(N)nc5)cc4n3)cc2)cc1,< 50 nM
10,CN(C)C(=O)c1ccc(NC(=O)Nc2ccc(-c3nc(N4CCOCC4)c4ncc(-c5cnc(N(C)C)nc5)cc4n3)cc2)cc1,< 50 nM
11,CN1CCN(C(=O)c2ccc(NC(=O)Nc3ccc(-c4nc(N5CCOCC5)c5ccc(-c6cccnc6F)cc5n4)cc3)cc2)CC1,< 50 nM
12,CC(=O)Nc1ccc(NC(=O)Nc2ccc(-c3nc(N4CCOCC4)c4ncc(-c5cccnc5F)cc4n3)cc2)cc1,< 50 nM
13,CN(C)C(=O)c1ccc(NC(=O)Nc2ccc(-c3nc(N4CCOCC4)c4ncc(-c5cccnc5)cc4n3)cc2)cc1F,< 50 nM
14,CN(C)C(=O)c1ccc(NC(=O)Nc2ccc(-c3nc(N4CCOCC4)c4ncc(-c5cccc(S(C)(=O)=O)c5)cc4n3)cc2)cc1,< 50 nM
15,CN(C)C1CCN(C(=O)c2ccc(NC(=O)Nc3ccc(-c4nc(N5CCOCC5)c5ncc(-c6cnn(C)c6)cc5n4)cc3)cc2)CC1,< 50 nM
16,CN(C)C(=O)c1ccc(NC(=O)Nc2ccc(-c3nc(N4CCOCC4)c4ccc(-c5cccnc5F)cc4n3)cc2)cc1,50 to 200 nM
17,CN(C)C(=O)c1ccc(NC(=O)Nc2ccc(-c3nc(N4CCOCC4)c4ncc(-c5cnn(C)c5)cc4n3)c(F)c2F)cc1,< 50 nM
18,CN(C)C1CCN(C(=O)c2ccc(NC(=O)Nc3ccc(-c4nc(N5CCOCC5)c5ccc(C(C)(C)O)cc5n4)cc3)cc2)CC1,< 50 nM
19,CN(C)C(=O)c1ccc(NC(=O)Nc2ccc(-c3nc(N4CCOCC4)c4ccc(-c5ccc(CO)o5)cc4n3)c(F)c2)cc1,< 50 nM
20,CN(C)[C@@H]1CCN(C(=O)c2ccc(NC(=O)Nc3ccc(-c4nc(N5CCOCC5)c5ncc(-c6cnn(C)c6)cc5n4)cc3)cc2)C1,< 50 nM
21,CN(C)C(=O)c1ccc(NC(=O)Nc2ccc(-c3nc(N4CCOCC4)c4ncc(-c5cccnc5F)cc4n3)c(F)c2)cc1,< 50 nM
